Experimental data taken from PMC8049054, “Systematic Assessment of Fragment Identification for Multitarget Drug Design” (Chemmedchem, 2021).

Experiments:
[1] = system: T1, soluble epoxide hydrolase (sEH); assay: Differential scanning fluorimetry (DSF) screen on sEH; format: binding; conditions: 50 µM reference compound, triplicates repeated 3 times
T1 construct: For the expression of sEH-H and sEH-Fl transformed E.coli BL21 (DE3) cells were grown in 5052; made in house; host or cells: E. coli BL21 (DE3)

[2] = target: T2, soluble epoxide hydrolase (sEH) (Homo sapiens, UniProt P34913); assay: sEH-H activity assay (fluorogenic substrate PHOME); format: biochemical; conditions: approved drug, 1-1000 µM
T2 construct: made in house; host or cells: E. coli BL21 (DE3)
T2 sequence (P34913 1-555): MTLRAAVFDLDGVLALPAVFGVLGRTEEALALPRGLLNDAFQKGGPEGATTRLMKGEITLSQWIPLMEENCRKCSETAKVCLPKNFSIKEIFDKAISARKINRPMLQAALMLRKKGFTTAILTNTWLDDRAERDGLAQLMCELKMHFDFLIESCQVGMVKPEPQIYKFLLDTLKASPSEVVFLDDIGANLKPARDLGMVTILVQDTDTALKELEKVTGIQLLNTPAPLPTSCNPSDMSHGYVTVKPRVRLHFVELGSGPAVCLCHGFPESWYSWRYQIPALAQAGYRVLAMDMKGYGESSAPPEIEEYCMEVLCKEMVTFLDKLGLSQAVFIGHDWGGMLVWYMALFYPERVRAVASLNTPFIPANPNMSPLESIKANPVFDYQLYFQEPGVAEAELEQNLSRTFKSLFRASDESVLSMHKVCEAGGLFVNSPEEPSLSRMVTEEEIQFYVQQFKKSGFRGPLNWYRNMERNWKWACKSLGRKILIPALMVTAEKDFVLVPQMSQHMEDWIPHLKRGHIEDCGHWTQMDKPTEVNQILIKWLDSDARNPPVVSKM
Procedure: (§1) For hit validation, we employed secondary assays with orthogonal readouts to confirm fragment activities. Biochemical activity assays were chosen for the enzymes sEH, LTA4H, and 5‐LOX. […] RXRα and FXR modulation was assessed in cell‐based hybrid reporter gene assays. All ten compounds were tested at a single concentration of 500 μM in the sEH and LTA4H activity assays and with a concentration of 100 μM on 5‐LOX, RXRα, and FXR. Fragments showing an inhibition greater than 50 % (sEH‐H and LTA4H) or greater than 70 % (5‐LOX) as well as the hits determined in the DSF experiments were further characterized in full concentration‐response curves between 0.1 and 1000 μM. […] As alternative cell‐free assay we employed isothermal titration calorimetry (ITC) to determine binding affinity of the fragments towards the LBDs of both nuclear receptors. ITC was performed with a protein concentration of 50 μM and compound concentrations of 250 μM.
(§2) The 10 fragments showing dual activity in the DSF experiments were validated by functional assay screening with a fixed concentration of 500 µM in case of sEH-H and LTA4H, 100 µM in case of 5-LOX and 30 µM, 10 µM and 5 µM in case of FXR and […]
(§3) % (5-LOX) as well as the hits determined in the DSF experiments were further measured with concentrations between 1000 µM and 0.1 µM (sEH-H and LTA4H) and between 300 µM and 1 µM (5-LOX). The sEH and LTA4H activity assays were performed as triplicate and repeated 3 times. The 5-LOX activity assay was performed with one point per concentration and repeated 3 times Raw data was first analyzed in Microsoft Office Excel (2013), before IC50 curves were plotted and further analyzed using GraphPad Prism 7 and GraphPad Prism 8 for the shown graphs .
The eight approved drugs were measured in the orthogonal assay systems analogous to the fragments. The approved drugs were […]
For the sEH-H and LTA4H, they were measured as triplicate in concentrations between 1000 µM and 1 µM and each measurement was repeated three times. For the 5-LOX they were measured as single point measurement in three different experiments with concentrations between 300 µM and 1 µM. For […]
Raw data was processed according to the fragments.
The sEH-H activity assay was performed adapted from Hahn et al.5 and Lukin et al.6. In short 1 µl of compound dilution in DMSO or pure DMSO (for the positive and negative control) was placed in a black 96-well plate (Thermo Scientific™ Nunc™ F96 MicroWell™ Black Polystyrene Plate) and then 89 µl of protein-mix or buffer mix (without protein as negative control) were added and the mixture was incubated for 30 min at room temperature. 10 µl of 0.6 mM 3-phenyl-cyano(6-methoxy-2-naphthalenyl)methylester-2-oxiraneacetic acid (PHOME) were added to every well. The Plate was measured every minute for 45 min. Final concentration per well was 3 nM sEH-Fl, 0.001 % Triton X-100, 25 mM Bis-tris, 0.1 mg/ml BSA, pH = 7.0, 1.6% DMSO […]

5‐lipoxygenase (5‐LOX) [3] = target: T3, 5‐lipoxygenase (5‐LOX) (Homo sapiens, UniProt P09917); assay: 5-LOX activity assay (HPLC detection of product formation); format: biochemical; conditions: mean±standard deviation of three independent experiments
T3 construct: made in house; host or cells: E. coli BL21 (DE3)
T3 sequence (P09917 1-674): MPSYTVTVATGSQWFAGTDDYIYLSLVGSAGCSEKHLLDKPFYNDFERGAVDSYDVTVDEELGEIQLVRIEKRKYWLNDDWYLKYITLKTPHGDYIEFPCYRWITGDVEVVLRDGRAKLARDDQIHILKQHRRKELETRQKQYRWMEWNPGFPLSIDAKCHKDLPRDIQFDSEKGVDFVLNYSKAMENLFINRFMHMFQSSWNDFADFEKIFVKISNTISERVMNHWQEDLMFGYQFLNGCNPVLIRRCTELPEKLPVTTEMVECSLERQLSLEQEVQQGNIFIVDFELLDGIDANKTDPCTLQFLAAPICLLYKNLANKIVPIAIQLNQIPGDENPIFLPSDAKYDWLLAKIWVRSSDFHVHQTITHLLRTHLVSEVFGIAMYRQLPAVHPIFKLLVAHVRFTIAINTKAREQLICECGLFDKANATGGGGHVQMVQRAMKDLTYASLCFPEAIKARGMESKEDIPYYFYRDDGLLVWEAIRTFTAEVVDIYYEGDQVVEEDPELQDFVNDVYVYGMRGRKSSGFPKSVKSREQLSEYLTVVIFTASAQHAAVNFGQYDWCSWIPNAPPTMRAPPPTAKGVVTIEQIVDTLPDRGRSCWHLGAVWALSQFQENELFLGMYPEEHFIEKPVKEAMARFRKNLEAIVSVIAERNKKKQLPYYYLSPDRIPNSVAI
Procedure: as §1, §2, §3
The eight approved drugs were measured in the orthogonal assay systems analogous to the fragments. […]
For the 5-LOX they […]
were measured as single point measurement in three different experiments with concentrations between 300 µM and 1 µM. For […]
Raw data was processed according to the fragments. […]

[4] = system: sEH, LTA4H, 5‐LOX, RXRα, FXR; assay: DSF primary screen, statement over all five proteins; format: binding; conditions: 500 μM
Text: For the primary screen of this fragment library, we employed differential scanning fluorimetry (DSF, also known as thermal shift). DSF is generally applicable to a large panel of protein targets and provides a robust, low‐cost screening technology for fragment‐based approaches. ^[20] All five proteins of our interest are soluble and were recombinantly expressed in Escherichia coli. We performed an initial fragment screen on all five targets by DSF. The use of a uniform screening method for all targets ensured consistent data and provided the opportunity to identify false positive hits which interfered with the screening technology. The conditions of the DSF assay were optimized for the desired screening and validated with reference compounds (Table S1 in the Supporting Information). Compounds causing a positive thermal shift ΔT m≥1.0 °C were considered as active. […]
The measurements were performed using a iCycler iQ™ Single -Color Real Time PCR device with a heat rate of 1 °C per min, an excitation wavelength of 490 nm and an emission wavelength of 570 nm. The first derivation calculated by MyiQ Op tical Software 1.0 was analyzed using Microsoft Office Excel 2013 by comparing the maxima. […]

RXRα = system: T4, RXRα; assay: Differential scanning fluorimetry (DSF) screen on RXRα; format: binding; conditions: 50 µM reference compound; measured once as triplicate; no melting curve with DMSO
T4 construct: MBP (N, cleaved yes); poly-N-tag, His8-tag, TEV site (N, cleaved yes); made in house; host or cells: E. coli T7-express with pGro7 (GroEL/ES)

5‐lipoxygenase (5‐LOX) [5] = target: T3, 5‐lipoxygenase (5‐LOX); assay: Differential scanning fluorimetry (DSF) screen on 5-LOX; format: binding; conditions: 100 µM reference compound; measured once as triplicate
[6] = target: T5, leukotriene A4 hydrolase (LTA4H) (Homo sapiens, UniProt P09960); assay: Differential scanning fluorimetry (DSF) screen on LTA4H; format: binding; conditions: 50 µM reference compound, triplicates repeated 3 times
T5 construct: made in house; host or cells: E. coli BL21 (DE3)
T5 sequence (P09960 1-611): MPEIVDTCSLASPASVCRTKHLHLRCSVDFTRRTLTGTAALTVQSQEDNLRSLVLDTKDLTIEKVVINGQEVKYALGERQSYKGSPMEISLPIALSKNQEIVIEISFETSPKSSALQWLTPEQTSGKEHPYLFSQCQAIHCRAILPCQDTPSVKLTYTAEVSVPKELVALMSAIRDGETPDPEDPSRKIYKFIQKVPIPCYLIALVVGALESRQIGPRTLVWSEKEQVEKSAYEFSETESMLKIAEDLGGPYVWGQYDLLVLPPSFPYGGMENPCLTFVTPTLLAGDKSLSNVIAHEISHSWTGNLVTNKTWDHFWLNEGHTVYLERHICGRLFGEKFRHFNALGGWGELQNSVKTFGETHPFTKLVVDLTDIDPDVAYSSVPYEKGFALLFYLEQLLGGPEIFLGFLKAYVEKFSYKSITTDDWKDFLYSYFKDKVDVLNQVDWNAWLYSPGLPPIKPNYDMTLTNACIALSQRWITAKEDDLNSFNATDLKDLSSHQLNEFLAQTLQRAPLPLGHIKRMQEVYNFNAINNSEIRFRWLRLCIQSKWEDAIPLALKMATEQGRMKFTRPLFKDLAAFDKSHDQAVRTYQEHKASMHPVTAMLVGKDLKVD

With `O=C(Nc1ccc(I)cc1)NC1CCCCC1` [CIU] as the compound, how does the “TM(ref) sEH-H” value [1] read?
Its value is 62.2 ± 0.4 °C.

What about the “ΔTM sEH-H” value ([1]; in °C) of the same compound?
Its value is 5.6 ± 0.5.

Which results are given for `CC(C)COCC(CN(Cc1ccccc1)c1ccccc1)N1CCCC1` (stereo not shown) [Compound 15, bepridil, reference compound]?
activity towards sEH [2]: completely loosing activity; IC50 (5‐lipoxygenase (5‐LOX) [3]): 3.2 µM

With `O=C(NCc1cccnc1)c1ccc(O)cc1` [Compound 22] as the compound, how does the “activity in the DSF screen” value [4] read?
The value was “no activity”.

Which “activity in the DSF screen” value [4] does the source give for `Cc1nc2ccccc2[nH]1` [Compound 24] here?
Its value is “no activity”.

`CC1(C)CCC(C)(C)c2cc(C3(c4ccc(C(=O)O)cc4)OCCO3)ccc21` [SR11237] was tested. Which “TM(ref) RXRα” value (RXRα) did it give?
Its value is 59.0 ± 0.0 °C.

For `C[C@H](C#Cc1ccc(Cc2ccc(F)cc2)s1)N(O)C(N)=O` [atreleuton], which “TM(ref) 5-LOX” value (5‐lipoxygenase (5‐LOX) [5]) is on record?
Its value is 63.7 ± 0.6 °C.

What does the source list for `CC(C)C[C@H](NC(=O)[C@@H](O)[C@H](N)Cc1ccccc1)C(=O)O` [bestatin]?
TM(ref) LTA4H [6]: 60.7 ± 0.9 °C; ΔTM LTA4H ([6]; in °C): 5.9 ± 0.7
